In paper PMC6522510 (Nature Communications, 2019):

Legend:
Test in all cases: cells
Parameters in all cases: species or system AML cell lines (8); Secondary HTS, 10-point dose-response in triplicate, Cell Titer Glo viability, four-parameter fit EC50
M07e = conditions: M-07e, 72 h, read-out: M07e
CMK = conditions: Homo sapiens, CMK, 72 h, read-out: CMK
ML-2 = conditions: Homo sapiens, ML-2, 72 h, read-out: ML-2
U937 = conditions: Homo sapiens, U-937, 72 h, read-out: U937
CMS = conditions: 72 h, read-out: CMS
MV4-11 = conditions: Homo sapiens, MV4-11, 72 h, read-out: MV4-11
CHRF288-11 = conditions: 72 h, read-out: CHRF288-11
MOLM-13 = conditions: Homo sapiens, MOLM-13, 72 h, read-out: MOLM-13

SMILES	EC50 (M07e)	EC50 (CMK)	EC50 (ML-2)	EC50 (U937)	EC50 (CMS)	EC50 (MV4-11)	EC50 (CHRF288-11)	EC50 (MOLM-13)
COC(=O)[C@H](CC(C)C)NC(=O)c1ccc(NC[C@@H](N)CS)cc1-c1cccc2ccccc12 [SJ000821624, GGTI 298]	> 10 µM	> 10 µM	> 10 µM	6.5 µM	> 10 µM	6.4 µM	> 10 µM	6.4 µM
CCCCNc1ncc2c(-c3ccc(CN4CCN(C)CC4)cc3)cn(C3CCC(O)CC3)c2n1 (centres unmarked) [SJ000821849, UNC2025A]	8.2 µM	4.6 µM	5 µM	8.1 µM	> 10 µM	0.001 µM	6.4 µM	0.021 µM
CNC(=O)c1ccccc1Nc1nc(Nc2ccc(N3CCOCC3)cc2OC)ncc1Cl [SJ000822451, NVP-TAE226]	7.6 µM	0.2 µM	2.5 µM	4.5 µM	> 10 µM	> 10 µM	9.8 µM	0.7 µM
CC(N[C@H]1C[C@@H]1c1ccccc1)c1ccc2c(c1)OCCO2 (some centres unmarked) [SJ000832930, LSD1-C76]	> 10 µM	> 10 µM	> 10 µM	> 10 µM	> 10 µM	0.001 µM	> 10 µM	> 10 µM
COc1ccc2nc3n[nH]c(C)c3c(NCCOCCO)c2c1 [SJ000832935, SCH 51344]	> 10 µM	> 10 µM	> 10 µM	> 10 µM	> 10 µM	> 10 µM	> 10 µM	> 10 µM
O=C(CCCCCCNC(=O)c1cnc(N(c2ccccc2)c2ccccc2)nc1)NO [SJ000833835, ROCILINOSTAT]	2.7 µM	9.1 µM	> 10 µM	10 µM	> 10 µM	> 10 µM	> 10 µM	> 10 µM
COc1ccc(Cn2ccc3ccc(C(=O)NO)cc32)cc1 [SJ000833836, PCI 34051]	> 10 µM	> 10 µM	> 10 µM	> 10 µM	6.8 µM	> 10 µM	> 10 µM	> 10 µM
O=C(NCC1(c2nc(-c3ccccc3)cs2)CCOCC1)c1cccc(-c2noc(C(F)(F)F)n2)c1 [SJ000833838, TMP269]	0.19 µM	> 10 µM	> 10 µM	> 10 µM	> 10 µM	> 10 µM	> 10 µM	> 10 µM
Cc1ccc(C(=O)c2cc(/C=C/C(=O)NO)n(C)c2)cc1 [SJ000833840, MC 1293]	0.45 µM	8.7 µM	> 10 µM	> 10 µM	> 10 µM	> 10 µM	> 10 µM	> 10 µM
C[C@@H]1COCCN1c1cc(C2(S(C)(=O)=O)CC2)nc(-c2cccc3[nH]ccc23)n1 [SJ000833844, AZ-20]	0.2 µM	> 10 µM	0.031 µM	4.7 µM	0.6 µM	> 10 µM	2.5 µM	> 10 µM
CC(C)(C#N)c1ccc(N2C(=O)OCc3cnc4ccc(-c5cnc6ccccc6c5)cc4c32)cc1 [SJ000833848, ETP-46464]	> 10 µM	0.73 µM	3.6 µM	> 10 µM	5.2 µM	> 10 µM	8.3 µM	> 10 µM
O=C(CCN1CCN(C(=O)OCc2cc(Cl)cc(Cl)c2)CC1)c1ccc2[nH]c(=O)oc2c1 [SJ000833851, PF-8380]	> 10 µM	> 10 µM	> 10 µM	> 10 µM	> 10 µM	> 10 µM	> 10 µM	0.0024 µM
Cc1noc(-c2ccc(-c3ccc(CC(=O)O)cc3)cc2)c1NC(=O)O[C@H](C)c1ccccc1 [SJ000833854, AM-095]	> 10 µM	> 10 µM	> 10 µM	> 10 µM	> 10 µM	> 10 µM	> 10 µM	0.0068 µM
